Experimental data as given in patent US4634663A, “Method and reagent for quantitative determination of N-acetylhexosamine” (Noda Institute for Scientific Research, priority 1983, dated 1987).

What was measured:
Type in all cases: biochemical, Pseudomonas sp. No. 15-1
[1] = system: N-acetylhexosamine oxidase; assay: Activity inhibition of the enzyme by metallic ions or inhibitors; details: for Inhibition of enzyme activity (in words): tris-hydrochloric acid buffer pH 7.5, 1.8mM; for Residual activity (%): tris-hydrochloric acid buffer solution of pH 7.5, 1.8mM metallic ion or inhibitor
Method: The activity of the present enzyme was measured in various solutions each comprising a tris-hydrochloric acid buffer solution of pH 7.5 and 1.8mM metallic ion or inhibitor.

[2] = system: N-acetylhexosamine oxidase; assay: as above
[3] = system: N-acetylhexosamine oxidase; assay: Action and specificity for substrate; details: in the presence of oxygen
Description: As shown in the following reaction formula, the present enzyme oxidizes N-acetylhexosamine in the presence of oxygen to form N-acetylhexosaminic acid and hydrogen peroxide.

[4] = system: N-acetylhexosamine oxidase; assay: Activity stabilization by bovine serum albumin during heat treatment; details: 1 mg/ml bovine serum albumin, potassium phosphate buffer pH 6.8, 10 minutes heat treatment
Method: Further, in 10 minutes heat treatment at 45° C., the present enzyme is stable between pH 3 and pH 9 and loses its activity rapidly at a more acidic region and slowly at a more alkaline region. In this experiment, the hydrogen peroxide method was adopted, and the residual activity of the present enzyme subjected to 10 minutes heat treatment in a potassium phosphate buffer solution of pH 6.8 at each temperature was compared with the residual activity of the same enzyme subjected to the same treatment in a potassium phosphate buffer solution of pH 6.8 containing 1 mg/ml of bovine serum albumin.

| Molecule | Residual activity (%) [1] | further results |
| --- | --- | --- |
| CC(=O)[O-].CC(=O)[O-].[Pb+2] [Pb(CH3 COO)2] | 42% | Inhibition of enzyme activity (in words) [1]: considerably |
| Oc1cccc2cccnc12 [8-Hydroxyquinoline] | – | Residual activity (%) ([2]; pH 7.5): 102% |
| O=S(=O)([O-])[O-].[Mg+2] [MgSO4] | 86% | – |
| O=C([O-])CN(CCN(CC(=O)[O-])CC(=O)[O-])CC(=O)[O-].[Na+].[Na+].[Na+].[Na+] [EDTA, Ethylenediaminetetraacetic acid sodium salt] | – | Residual activity (%) ([2]; pH 7.5): 87% |
| CC(=O)N[C@H]1[C@H]([C@H](O)[C@H](O)CO)OC(O)(C(=O)O)C[C@@H]1O (stereo partly drawn) [N-acetylneuraminic acid] | – | Action of the enzyme on substrate [3]: hardly acts or does not at all act |
| c1ccc(-c2ccccn2)nc1 [α,α'-Dipyridyl] | 106% | – |
| CCCCCCCCCCCCOS(=O)(=O)[O-].[Na+] [SDS, Sodium dodecylsulfate] | 87% | – |
| O=[N+]([O-])[O-].[Ag+] [AgNO3] | – | Residual activity (%) ([2]; Phosphate buffer solution, 1.8mM): 5% |
| NC(=O)CI [ICH2 CONH2] | 90% | – |
| O=S(=O)([O-])[O-].[Fe+2] [FeSO4] | 15% | Inhibition of enzyme activity (in words) [1]: inhibited greatly |
| O=S(=O)([O-])[O-].[Cu+2] [CuSO4] | 74% | – |
| O=C(O)CF [FCH2 COONa] | 107% | – |
| O=S(=O)([O-])[O-].[Ni+2] [NiSO4] | 64% | Inhibition of enzyme activity (in words) [1]: considerably |
| c1cnc2c(c1)ccc1cccnc12 [o'-Phenanthroline] | 81% | – |
| HgCl2 | 17% | Inhibition of enzyme activity (in words) [1]: inhibited greatly |
| O=S(=O)([O-])[O-].[Zn+2] [ZnSO4] | 2% | Inhibition of enzyme activity (in words) [1]: inhibited greatly |
| [Ca+2].[Cl-].[Cl-] [CaCl2] | 91% | – |
| O=C(O)c1cc[c]([Hg][Cl])cc1 [PCMB, pChloromercurybenzoate] | 67% | – |
| bovine serum albumin: bovine serum albumin added at 1 mg/ml as stabilizer of the enzyme | – | Effect on enzyme activity on heat treatment [4]: stabilized and moreover slightly enhanced |
| O=S(=O)([O-])[O-].[Mn+2] [MnSO4] | 84% | – |
| [N-]=[N+]=[N-].[Na+] [NaN3] | 103% | – |
| O=S(=O)([O-])[O-].[Co+2] [CoSO4] | 75% | – |
